Results as given in ChEMBL document CHEMBL1201862, “PubChem BioAssay data set” (2004).
The source made the active and inactive calls. No stated cut-off is given here; in the data, actives have a measured IC50 and inactives only a lower limit.

Target: Envelope glycoprotein gp160 (Human immunodeficiency virus 1, UniProt Q6QLK5)
Experiment: inhibitors of HIV fusion peptide binding, primary screen, biochemical, uHTS, fluorescence dequenching (AID 1986)

Chain of Envelope glycoprotein gp160 (Q6QLK5 whole entry, the tested form may be a part): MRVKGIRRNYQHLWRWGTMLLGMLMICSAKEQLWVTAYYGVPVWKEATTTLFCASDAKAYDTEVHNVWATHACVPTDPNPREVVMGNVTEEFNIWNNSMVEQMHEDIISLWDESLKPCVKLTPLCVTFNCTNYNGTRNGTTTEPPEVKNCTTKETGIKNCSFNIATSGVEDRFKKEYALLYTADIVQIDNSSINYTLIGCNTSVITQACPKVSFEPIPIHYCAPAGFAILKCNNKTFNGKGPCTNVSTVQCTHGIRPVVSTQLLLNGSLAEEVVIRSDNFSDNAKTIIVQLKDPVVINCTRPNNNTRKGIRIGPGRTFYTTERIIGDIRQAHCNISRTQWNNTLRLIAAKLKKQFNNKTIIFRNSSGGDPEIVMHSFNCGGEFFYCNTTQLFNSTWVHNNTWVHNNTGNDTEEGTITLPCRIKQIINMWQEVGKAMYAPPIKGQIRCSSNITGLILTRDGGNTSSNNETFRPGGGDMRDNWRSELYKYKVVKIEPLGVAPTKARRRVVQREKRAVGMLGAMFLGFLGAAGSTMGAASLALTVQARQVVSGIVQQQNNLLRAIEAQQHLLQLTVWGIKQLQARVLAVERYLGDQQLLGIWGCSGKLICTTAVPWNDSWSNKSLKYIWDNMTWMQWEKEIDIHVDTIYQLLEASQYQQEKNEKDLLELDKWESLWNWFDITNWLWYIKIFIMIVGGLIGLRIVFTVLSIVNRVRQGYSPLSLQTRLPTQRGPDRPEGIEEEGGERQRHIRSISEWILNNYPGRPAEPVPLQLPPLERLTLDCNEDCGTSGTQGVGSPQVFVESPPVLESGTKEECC

In the case of `COc1cc(/C=C2\SC(=O)N(c3ccccc3Cl)C2=O)cc([N+](=O)[O-])c1O`, the IC50 is reported as 24.7 µM (active).
